Experimental data as given in publication PMC10889159, “Synthesis and Antitumor Activity Evaluation of Novel Echinatin Derivatives with a 1,3,4-Oxadiazole Moiety” (International Journal of Molecular Sciences, 2024).

Tests used:
HCT116 cells [1] = assay: Intracellular ROS generation (DCFH-DA, flow cytometry); format: cell-based, human; conditions: escalating concentrations
Description: Approximately 4 × 10^5 cells per well were seeded in a 6-well plate and incubated for 12 h, then the discarded medium was replaced with fresh medium containing different concentrations of Compound T4 (0 μM, 0.625 μM, 1.25 μM, 2.5 μM, and 5 μM) for 48 h. ROS production was detected by using the peroxide-sensitive fluorescent probe DCFH-DA. After treatment with different concentrations of T4, the cells were incubated with 10 µg/mL DCFH-DA at 37 °C for 20 min. Then, the cells were harvested. Samples were analyzed by flow cytometry (FACS Calibur, Becton-Dickinson, East Rutherford, NJ, USA).

c-KIT = c-KIT (Homo sapiens, UniProt P10721); assay: Biochemical c-KIT activity assay (ADP-Glo); conditions: 20 μM ATP, read-out: IC50 for c-KIT inhibition
c-KIT, sequence (P10721 26-976): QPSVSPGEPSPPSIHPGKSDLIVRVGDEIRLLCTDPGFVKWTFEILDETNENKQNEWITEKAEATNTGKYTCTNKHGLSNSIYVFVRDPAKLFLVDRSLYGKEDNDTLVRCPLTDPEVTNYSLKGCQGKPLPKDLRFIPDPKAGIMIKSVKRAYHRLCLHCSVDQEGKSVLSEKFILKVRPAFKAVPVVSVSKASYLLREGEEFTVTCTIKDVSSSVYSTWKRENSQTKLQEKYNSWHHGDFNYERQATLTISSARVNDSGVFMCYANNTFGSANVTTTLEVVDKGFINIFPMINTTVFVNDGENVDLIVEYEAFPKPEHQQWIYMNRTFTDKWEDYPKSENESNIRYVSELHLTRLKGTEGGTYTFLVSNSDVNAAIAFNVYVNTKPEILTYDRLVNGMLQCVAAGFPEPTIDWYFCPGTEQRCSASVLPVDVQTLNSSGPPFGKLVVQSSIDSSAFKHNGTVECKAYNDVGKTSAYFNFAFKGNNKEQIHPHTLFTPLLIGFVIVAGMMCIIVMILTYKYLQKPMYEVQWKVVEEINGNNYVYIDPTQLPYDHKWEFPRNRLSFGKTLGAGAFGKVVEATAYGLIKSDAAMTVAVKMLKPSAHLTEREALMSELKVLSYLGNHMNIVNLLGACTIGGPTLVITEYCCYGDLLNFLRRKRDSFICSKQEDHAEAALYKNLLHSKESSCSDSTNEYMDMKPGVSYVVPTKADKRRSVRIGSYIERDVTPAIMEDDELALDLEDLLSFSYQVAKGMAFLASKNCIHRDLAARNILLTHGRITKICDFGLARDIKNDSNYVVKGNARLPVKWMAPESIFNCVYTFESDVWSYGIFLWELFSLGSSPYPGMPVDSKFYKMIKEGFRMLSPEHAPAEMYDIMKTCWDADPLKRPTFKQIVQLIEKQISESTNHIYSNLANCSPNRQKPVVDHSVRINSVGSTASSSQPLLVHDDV
Description: The enzymatic activities of c-KIT were determined by in vitro kinase assays using the ADP-Glo reagent (Promega, Madison, WI, USA) according to the manufacturer’s instructions. Briefly, 250 ng of c-KIT protein was incubated with compounds in 10 μL of reaction buffer (40 mM Tris−HCl, pH 7.4, 2 mM MnCl2, 2 mM DTT, 20 mM MgCl2, 0.1 mg/mL bovine serum albumin, 1 mM Na3VO4) containing 20 μΜ ATP and 40 μM poly (Glu4-Tyr1) as substrates at 30 °C for 150 min. The ADP-Glo reagent was then added, and the mixture was incubated at 25 °C for 40 min. The kinase detection reagent was added for another 30 min at 25 °C. The converted ADP was determined by luminescence measurement using a Wallac Vector 1420 multilabel counter (PerkinElmer).

HCT116 cells [2] = assay: Cell cycle analysis (PI staining, flow cytometry); format: cell-based, human
Description: The effects of Compound T4 on cell cycle progression were verified by using a standard (PI) staining procedure followed by flow cytometry analysis. HCT116 cells were seeded in 6-well plates and incubated for 24 h until the cells adhered. […] Control cells and treated cells were washed twice with PBS, centrifuged (1000 rpm, 5 min), and collected at a final concentration of 50,000 cells. Then, a single cell suspension was fixed in ice-cold 70% (v/v) ethanol overnight at 4 °C. The cells were washed again with PBS. A total of 100 μL RNase A was added and the cells were incubated at 37 °C for 30 min. The cell DNA was stained with 400 μL PI for 30 min. Data collection and analysis were carried out using a flow cytometer (Beckman Coulter cytoFLEX, USA).

CCC-HIE-2 = assay: Cytotoxicity toward CCC-HIE-2 cells; format: cell-based, human
HCT116 cells [3] = assay: Western blot of c-KIT downstream proteins and caspase-3; format: cell-based, human; conditions: 48 h
Description: HCT116 cells were seeded at a density of 4 × 10^5 cells per well and treated with various concentrations of Compound T4 (0, 1.25, 2.5, and 5 µM) for 48 h. After this, cells were collected and washed twice with ice-cold DPBS. The pellets were resuspended in a total protein extraction buffer (20 mM HEPES, 350 mM NaCl, 20% glycerol, 1% NP-40, 1 mM MgCl2, 0.5 mM EDTA, 0.1 mM EGTA, 0.1 mM DTT, 0.1 mM PMSF) containing a protease inhibitor cocktail and incubated on ice for 30 min with intermittent mixing. The protein concentration was measured using the Bradford reagent (Bio-Rad Laboratories Inc., Hercules, CA, USA). An equal amount (20 µg) of protein was loaded on 10% poly acrylamide gels and transferred to a nitrocellulose membrane. After blocking with 5% skimmed milk, the membrane was incubated at 4 °C overnight with specific primary antibodies. The membrane was washed and incubated at room temperature for 1 h with secondary antibodies conjugated with horseradish peroxidase (HRP). Finally, the immunoblot was developed for visualization using a chemiluminescence kit. Primary antibodies for Cleaved-caspase 3, MEK, p-MEK, Erk1/2, p-Erk1/2, mTOR, Akt, p-Akt, and GAPDH and all secondary antibodies were obtained from Santa Cruz Biotechnology (Santa Cruz, CA, USA).

HCT116 cells [4] = assay: TUNEL staining; format: cell-based, human; conditions: varying concentrations
Description: The slides were immersed in 4% paraformaldehyde (pH 7.4) for 25 min at room temperature and then washed with PBS 3 times. The cells were immersed in 0.1% Triton X-100 solution prepared with PBS for 10 min (operation on ice) and then washed twice with PBS. Dilute 5× equilibration buffer with deionized water and 100 µL 1× equilibration buffer were added to each climbing tablet to cover the sample area to be tested, then incubated at room temperature for 15 min. […] The slides were placed in a wet box and incubated at 37 °C for 60 min. The wet box was wrapped with aluminum foil to avoid light. These were then washed three times with PBS with DAPI dripped and incubated in the dark for 5 min. The nucleus of the specimen was stained. Water-absorbent paper was used to absorb the liquid on the climbing sheet, then a sealing liquid containing an anti-fluorescence quenching agent was used to seal the film before the images were observed and collected under a fluorescence microscope.

HT-29 = assay: CCK8 antiproliferative assay, HT-29; format: cell-based; conditions: Homo sapiens, CCK8, 48 h, mean ± SD, n = 3
Description: (§1) For all biological assays, all of the synthesized compounds were dissolved in DMSO. The cytotoxicity of all of the target compounds against the HCT116, K562, KU812, and HT-29 cells was determined by an CCK8 assay in vitro using adriamycin and echinatin as the controls. About 3000 cells per well were seeded in a 96-well plate and incubated for 24 h. Then, the cells were stimulated with different concentrations of test compounds for 48 h. The CCK8 solution (100 µL 0.5 mg/mL^−1) was added to each well, and the cells were incubated for another 4 h. Then, the absorbance of the samples was measured at 450 nm. The IC50 values were calculated according to the Logit method after obtaining the inhibitory rate. All experiments were repeated three times.

[5] = tested on: four cancer cell lines (K562, KU812, HT-29, HCT116); assay: CCK8 antiproliferative assay, summary over the four cancer cell lines; format: cell-based; conditions: Homo sapiens; range over K562, KU812, HT-29, HCT116; read-out: IC50 against the four cancer cell lines
Description: as §1

K562 = assay: CCK8 antiproliferative assay, K562; format: cell-based; conditions: Homo sapiens, CCK8, 48 h, mean ± SD, n = 3
Description: as §1

HCT116 cells [6] = assay: Wound healing assay; format: cell-based, human; conditions: 24 h, serum-free medium
Description: Five lines were drawn evenly on the back of the 6-well plate and transferred HCT116 cells (1 × 10^6/well) in a 6-well plate until a uniform monolayer of cells formed at the bottom of the 6-well plate. Then, we drew lines on the cells using a 200 μL pipette tip. We then carefully washed the damaged cell monolayer with PBS, then treated with different concentrations of Compound T4, and incubated in serum-free medium for 24 h. We then used an inverted microscope to take photos of the 6-hole plate at the 0 and 24 h time points and used ImageJ for processing and analysis.

KU812 = assay: CCK8 antiproliferative assay, KU812; format: cell-based; conditions: Homo sapiens, CCK8, 48 h, mean ± SD, n = 3
Description: as §1

HCT116 cells [7] = assay: Cell colony formation assay; format: cell-based, human; conditions: 1.25, 2.5, 5 µM, 14 d
Description: To investigate the effects of echinatin derivatives on the clonogenic potential of HCT116 cells, the colony formation assay was performed as previously described. HCT116 cells were seeded into 6-well plates at 37 °C with 5% CO2 for 24 h and then treated with Compound T4 and echinatin at various concentrations (0 µM, 1.25 µM, 2.5 µM, and 5 µM) for 14 d. Then, cells were stained with crystal violet solution and clone numbers were counted directly with the naked eye.

HCT116 = assay: CCK8 antiproliferative assay, HCT116; format: cell-based; conditions: Homo sapiens, HCT-116; CCK8, 48 h, mean ± SD, n = 3
Description: as §1

COc1cc(O)ccc1/C=C/C(=O)c1ccc(OCc2nnc(Nc3ccc(C(F)(F)F)cc3)o2)cc1 [Compound T4, (E)-3-(4-Hydroxy-2-methoxyphenyl)-1-{4-{{5-{[4-(trifluoromethyl)phenyl]amino}-1,3,4-oxadiazol-2-yl}methoxy}phenyl}propenone]
generation and accumulation of ROS (HCT116 cells [1]): concentration-dependent generation and accumulation of ROS
IC50 (c-KIT): 0.178 µM
distribution of cell cycle phase (%): S (HCT116 cells [2]; 5 μM, 48 h (control 28.0%)): 16.8%
distribution of cell cycle phase (%): G0/G1 (HCT116 cells [2]; 5 μM, 48 h (control 54.7%)): 65.1%
cell cycle arrest (HCT116 cells [2]; various concentrations, 48 h): blocked the cell cycle in the G0/G1 phase
growth of CCC-HIE-2 cells (CCC-HIE-2): not significantly influenced
SI (selectivity index) (CCC-HIE-2; CCC-HIE-2 vs HCT116): 16.1
IC50 (CCC-HIE-2; human embryonic intestinal mucosal derived cell line): 27.6 ± 1.37 µM
expression of the phosphorylated forms of Akt, MEK, Erk1/2, and mTOR (HCT116 cells [3]; 1.25, 2.5, 5 μM): significantly downregulated
protein expression levels of Akt, MEK, and Erk1/2 (HCT116 cells [3]; 1.25, 2.5, 5 μM): not significantly altered
expression of caspase-3, as a percentage of GAPDH (HCT116 cells [3]; upregulated from 24% following T4 treatment (0-5 μM)): 49%
apoptotic cells (TUNEL red fluorescence) (HCT116 cells [4]): increase in apoptotic cells
IC50 (HT-29): 2.87 ± 0.32 µM
IC50 [5]: 1.71 to 8.6 µM
IC50 (K562): 8.6 ± 0.61 µM
HCT116 cell migration (HCT116 cells [6]): strongly inhibited
IC50 (KU812): 8.09 ± 0.91 µM
cell colony number (HCT116 cells [7]): decreased in a dose-dependent manner
melting point: 180.5 to 181.4 °C
IC50 (HCT116): 1.71 ± 0.46 µM
